Like-named read-outs stand apart in the source and are kept apart here.

Here are results for three molecules from paper PMC3677712 (Bioorganic & medicinal chemistry letters, 2013).

Data set [1] deals with T1, AMPK (AMPK-A1/B1/G1) (Homo sapiens, UniProt Q13131). The settings on record: reference compounds previously run in these assays; cited from earlier work.
A further data set relates to ALK2 (Q207D). To be noted: mouse model expressing a constitutively active form of ALK2 (Q207D); cited from earlier work.
Data set [2] in a line: Intrinsic clearance in hepatic microsomes. It counts as in vitro ADME. To be noted: human.
Data set [3] deals with T1, AMPK (AMPK-A1/B1/G1). The data set is described as follows: In vitro kinase assay. The settings on record: 10-dose, 3-fold dilution from 100 μM, 10 μM ATP. It counts as biochemical.
Data set [4] can be described thus: Intrinsic clearance in hepatic microsomes. The settings on record: rat. It counts as in vitro ADME.
A short description of data set [5]: Intrinsic clearance in hepatic microsomes. The settings on record: mouse. It counts as in vitro ADME.
The mark [6] stands for this setting: predicted from microsomal intrinsic clearance.

T1 sequence (Q13131 whole entry): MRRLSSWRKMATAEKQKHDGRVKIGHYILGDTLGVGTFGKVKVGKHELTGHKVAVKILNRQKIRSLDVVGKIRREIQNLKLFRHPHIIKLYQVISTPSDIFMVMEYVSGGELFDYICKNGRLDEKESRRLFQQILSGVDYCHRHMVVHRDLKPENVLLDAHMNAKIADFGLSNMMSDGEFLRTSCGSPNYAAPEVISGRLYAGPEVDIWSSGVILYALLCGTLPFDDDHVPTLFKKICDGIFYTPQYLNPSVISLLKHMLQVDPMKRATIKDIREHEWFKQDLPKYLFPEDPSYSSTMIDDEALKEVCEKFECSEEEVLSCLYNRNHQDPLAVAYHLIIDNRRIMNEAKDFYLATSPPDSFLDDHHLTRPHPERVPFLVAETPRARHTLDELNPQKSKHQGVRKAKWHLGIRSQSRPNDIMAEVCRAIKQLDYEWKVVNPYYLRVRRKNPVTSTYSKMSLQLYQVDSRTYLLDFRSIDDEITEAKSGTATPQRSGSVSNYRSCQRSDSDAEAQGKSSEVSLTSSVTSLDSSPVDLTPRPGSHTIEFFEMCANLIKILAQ
T1 sequence (Q9Y478 whole entry partner): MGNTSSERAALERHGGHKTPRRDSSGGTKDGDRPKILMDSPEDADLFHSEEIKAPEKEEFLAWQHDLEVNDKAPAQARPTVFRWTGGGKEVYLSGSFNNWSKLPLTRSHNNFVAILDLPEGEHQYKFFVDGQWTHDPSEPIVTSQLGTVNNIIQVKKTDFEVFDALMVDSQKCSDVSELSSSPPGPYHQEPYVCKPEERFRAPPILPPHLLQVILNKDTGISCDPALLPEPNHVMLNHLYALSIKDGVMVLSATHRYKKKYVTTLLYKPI
T1 sequence (P54619 whole entry partner): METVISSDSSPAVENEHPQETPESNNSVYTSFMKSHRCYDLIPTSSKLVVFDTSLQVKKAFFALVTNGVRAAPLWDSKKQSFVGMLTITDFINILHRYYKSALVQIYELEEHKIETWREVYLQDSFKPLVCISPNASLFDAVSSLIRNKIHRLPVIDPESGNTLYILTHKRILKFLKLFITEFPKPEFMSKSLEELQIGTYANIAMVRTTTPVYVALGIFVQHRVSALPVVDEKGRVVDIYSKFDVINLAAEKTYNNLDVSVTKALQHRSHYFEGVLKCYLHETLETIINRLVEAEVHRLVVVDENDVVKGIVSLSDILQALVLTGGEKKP

`CC(C)Oc1ccc(-c2cnc3c(-c4ccnc5ccccc45)cnn3c2)cc1` [DMH1, 3, DMH1]: the “IC50 AMPK” value on AMPK (AMPK-A1/B1/G1) [1] was “Inactive”.
In the case of `c1ccc2c(-c3cnn4cc(-c5ccc(N6CCNCC6)cc5)cnc34)ccnc2c1` [LDN-193189, 2, LDN-193189], the “effect on ectopic ossification (in words)” value with ALK2 (Q207D) is listed as “could blunt ectopic ossification”.
Consider `COc1ccc(-c2cnc3c(-c4cccc5ncccc45)cnn3c2)cc1` [7g], for which the CLint scaled was determined as 516 mL/min/kg in data set [2] (liver microsomes), 148 mL/min/kg in data set [4] (liver microsomes) and 617 mL/min/kg in data set [5] (liver microsomes). Besides, the CLHEP in data set [2] (setting [6]) is 20.2 mL/min/kg; in data set [4] (setting [6]), 47.5 mL/min/kg; in data set [5] (setting [6]) it was 78.5 mL/min/kg. In addition, the “IC50 AMPK” value against AMPK (AMPK-A1/B1/G1) [3] is given as “Inactive”.
